Entries after “also recorded” stand apart in the source; their conditions may differ.
Key:
[1] = test system: Middle Cerebral Artery Occlusion, MCAO/Reperfusion Model (ischemic stroke); assay: Analysis of brain infarct region (TTC staining) after MCAO; format: in vivo, male SD rats; details: 50 mg/kg given 10 minutes before MCAO; for reduction of brain infarct volume vs vehicle control group: Student's T test; for reduction of infarct size at positions from the front end of the brain: brain taken 24 hours after MCAO, 2 mm slices, FIG. 4B
[2] = Weight analysis in MCAO/reperfusion model; details: 24 hours after MCAO surgery, 50 mg/kg; for retardation in body weight decrease vs vehicle control group: FIG. 5; for body weight, AVG, 24 hr: average value
Excerpt: (§1) Test animals (250-350 g of male SD rats in this example) were anesthetized with 2% isoflurane in N2O/O2 (70%/30%). The right common carotid artery (right CCA), external carotid artery (ECA), and internal carotid artery (ICA) were isolated.
(§2) Cutting along the midline of the scalp, the nylon monofilament (the front of the nylon monofilament was covered with polysiloxane) was inserted through the external carotid artery along the internal carotid artery and extending to circle of Willis of the brain, resulting in obstruction of the middle cerebral artery. After an hour of ischemia, the nylon monofilament was removed and the brain's blood was reperfused.
(§3) The above-mentioned prevention model experiment further comprised a blank control group (sham) which were undergone no MCAO surgery and administered without the compound; and a vehicle control group (Vehicle) which was undergone MCAO surgery and administered with water in place of the compound.

[3] = test system: Middle Cerebral Artery Occlusion, MCAO/Reperfusion Model (ischemic stroke); assay: Neurobehavioral assessment after MCAO surgery; details: 50 mg/kg given 10 minutes before MCAO, 24 hours after MCAO surgery, Student's T test vs Vehicle, FIG. 3
Excerpt: as §1, §2, §3
Neurobehavioral assessment in one embodiment of the present invention was performed on the rats at 0.5, 1.5 and 24 hours after MCAO surgery on each group of rats, and scored according to the following states.
Score 0: lifting the rat by its tail to about 20 to 30 cm above the ground and observing the state of stretching the forelimbs, at which state the forelimb of the rat could stretch towards the ground with balance and no occurrences of other nerve injuries is shown in FIG. 2(A), representing the normal rat.
Score 1: lifting the rat by its tail to about 20 to 30 cm above the ground and observing the state of stretching the forelimb.
Score 2: the rat was placed on the ground and a lateral thrust was applied. The resistance of the rat to the thrust ipsilateral to the damaged area of the brain was decreased.
Score 3: the rat continued to go around in circles towards the contralateral side of damaged area of the brain and incapable of going straight when it was set free to exercise.
The Student's T test was adopted to determine whether there was difference between the groups administered with each compound and the Vehicle group. If the p value was less than or equal to 0.05, it represented significant difference.

| SMILES | reduction of brain infarct volume vs vehicle control group ([1]; 24 hours after MCAO, FIG. 4C, listed as AR-04-155) | reduction of infarct size at positions from the front end of the brain [1] | retardation in body weight decrease vs vehicle control group [2] | body weight, AVG, 24 hr [2] | nerve injury (neurobehavioral assessment score) vs Vehicle ([3]; listed as AR-04-155) | total infarct volume (%) of the brain ([1]; 24 hours after MCAO, FIG. 4C) | reduction of brain infarct volume vs vehicle control group ([1]; 24 hours after MCAO, FIG. 4C) | reduction of brain infarct volume vs vehicle control group ([1]; 24 hours after MCAO, FIG. 4C, listed as AR-04-415) | nerve injury (neurobehavioral assessment score) vs Vehicle [3] | nerve injury (neurobehavioral assessment score) vs Vehicle ([3]; listed as AR-04-415) | reduction of brain infarct volume vs vehicle control group ([1]; 24 hours after MCAO, FIG. 4C, listed as AR-04-18225) | reduction of infarct size at positions from the front end of the brain ([1]; listed as AR-04-18225) | nerve injury (neurobehavioral assessment score) vs Vehicle ([3]; listed as AR-04-18225) |
| --- | --- | --- | --- | --- | --- | --- | --- | --- | --- | --- | --- | --- | --- |
| COc1cc(C)c(OC)c2c1OCO2 [AR-04-15S, 4,7-Dimethoxy-5-methyl-1,3-benzodioxole] | significant effects in reducing the infarct; also recorded: statistically significant effect in reducing the brain infarct volume | significant effect in reducing the infarct size at 7 mm, 9 mm and 11 mm | significant retardation in body weight decrease | 243.2 | recovery tendency; also recorded: significant effects in reducing nerve injury |  |  |  |  |  |  |  |  |
| C=C(CC[C@@H](C(=O)O)[C@H]1CC[C@@]2(C)C3=CC[C@H]4C(C)(C)[C@@H](O)CC[C@]4(C)C3=CC[C@]12C)C(C)C [AR-04-41S, dehydroeburicoic acid] |  | significant effect in reducing the infarct size at 3 mm, 7 mm, 9 mm, 11 mm, and 13 mm; also recorded: better efficacy at 7 mm |  | 266.5 |  | less than 10% | statistically significant effect in reducing the brain infarct volume | best effect on reducing the infarct volume | statistically significant in efficacy; also recorded: statistically significant effect in reducing nerve injury | recovery tendency |  |  |  |
| C=C(CC[C@@H](C(=O)O)[C@H]1C[C@H](O)[C@@]2(C)C3=CC[C@H]4C(C)(C)[C@@H](O)CC[C@]4(C)C3=CC[C@]12C)C(C)C [AR-04-1822S, dehydrosulphurenic acid (dehydrosulfurenic acid)] |  |  | significant retardation in body weight decrease | 270.0 |  |  | significant effects in reducing the infarct |  | statistically significant in efficacy |  | statistically significant effect in reducing the brain infarct volume | significant effect in reducing the infarct size at 3 mm, 5 mm, 7 mm, 9 mm, 11 mm, and 13 mm; also recorded: significantly better effect in reducing the infarct size at 7 mm and 9 mm | recovery tendency; also recorded: statistically significant effect in reducing nerve injury |

— patent US20180353521A1, “METHOD FOR TREATING STROKE OR REDUCING NERVE INJURY” (priority 2017, published 2018)
